For data set [1], the target named is T1, catechol-O-methyltransferase (COMT) (Homo sapiens, UniProt P21964).
T1 construct: M51A variant) was expressed in HEK 293F cells
T1 sequence (P21964 52-271 limits assumed): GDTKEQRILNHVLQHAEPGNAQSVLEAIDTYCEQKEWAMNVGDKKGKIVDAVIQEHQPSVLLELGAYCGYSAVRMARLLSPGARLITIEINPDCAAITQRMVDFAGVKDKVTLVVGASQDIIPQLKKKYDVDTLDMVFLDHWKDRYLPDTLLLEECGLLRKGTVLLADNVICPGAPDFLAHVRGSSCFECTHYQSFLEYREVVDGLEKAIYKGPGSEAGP
Kind of data set: COMT inhibition assay (HTRF, production of SAH from SAM). To be noted: recombinant human COMT, table does not say whether MB-COMT or S-COMT. In kind it is biochemical. The protocol:
The ability of compounds to inhibit the activity of catechol-O-methyltransferase (COMT) was determined by a homogenous time-resolved fluorescent (HTRF) assay (Lina et al, 2012; kit from CisBio, Codolet, France). This assay measures the production of S-adenosyl homocysteine (SAH) from the methyl donor S-adenosyl methionine. Recombinant human membrane bound COMT (MB-COMT; M51A variant) was expressed in HEK 293F cells using 293Fectin (Life Technologies, Gent, Belgium) and membranes prepared. The membranes were re-suspended in buffer (20 mM Tris/HCl pH 7; 10 mM glycerol; 2 mM MgCl2; 10 mM NaCl), aliquoted and stored at −80° C. Recombinant human soluble COMT (S-COMT), Val158 variant and a hexa-His tag on the N-terminus, was purified using Ni-NTA chromatography, the His tag removed and stored in buffer as above.
For the human MB-COMT assay, membranes (62 ng/well) were incubated with SAM (20 μM final, CisBio) and dopamine (1.5 μM final; Sigma H8502, Diegem, Belgium) in the presence or absence of varying concentrations (typically 10 concentrations ranging from 10 μM to 0.1 nM) of compound for 40 min at 37° C. in 384-well microtitre plates (10 μl per well final volume). The reaction was terminated by the addition of acylation buffer and the amount of SAH produced determined according to manufacturer's instructions. Specific inhibition as that inhibited by a high concentration of tolcapone (10 μM; synthesised at UCB) and all experiments were validated using a control curve to tolcapone.
The human S-COMT assay was performed as above except that 0.15 ng enzyme/well was incubated with SAM (20 μM final) and dopamine (100 μM final) for 15 min at 37° C. and SAH production determined.
HTRF readings were performed using a Perkin Elmer Envision and results expressed as concentration of SAH produced using a standard curve. Results were analysed using non-linear regression to the 4-parameter logistic equation and pIC50 (−log 10 concentration of drug which inhibits enzyme activity/SAH production by 50%) determined.

The conditions of data set [2]: Nutt and Fellman 1984; cited from earlier work.
The conditions of data set [3]: Russ, et al. 1999; cited from earlier work.

Take `O=S(=O)(c1cc(Cl)cc(Cl)c1)c1cc(Cl)c(O)c2ncccc12` [Example 21, 7-chloro-5-(3,5-dichlorophenyl)sulfonyl-quinolin-8-ol]: the “Activity range (pIC50)” value in data set [1] is “+ (a single plus (+) is associated with a pIC50 of from about 4.5 to 6)”.

Consider `O=S(=O)(c1ccc[n+]([O-])c1)c1cc(Cl)c(O)c2ncccc12` [Example 28, 7-chloro-5-(1-oxidopyridin-1-ium-3-yl)sulfonyl-quinolin-8-ol], for which the “Activity range (pIC50)” value in data set [1] is reported as “+ (a single plus (+) is associated with a pIC50 of from about 4.5 to 6)”. Same read-out and setting: the same measure for `O=S(=O)(c1cc(Cl)c(O)c2ncccc12)N1CCCC1` [Example 7, 7-chloro-5-pyrrolidin-1-ylsulfonyl-quinolin-8-ol]: “++ (two plus signs (++) is associated with a pIC50 of from about great than 6 to 7)”. For the compound `O=S(=O)(c1ccc(O)c2ncccc12)C1CCOCC1` [Example 3, 5-tetrahydropyran-4-ylsulfonyquinolin-8-ol], the “Activity range (pIC50)” value in data set [1] is on record as “++ (two plus signs (++) is associated with a pIC50 of from about great than 6 to 7)”.

As to `Cc1cccc(S(=O)(=O)c2cc(Cl)c(O)c3ncccc23)c1` [Example 23, 7-chloro-5-(m-tolylsulfonyl)quinolin-8-ol], the “Activity range (pIC50)” value in data set [1] was “++ (two plus signs (++) is associated with a pIC50 of from about great than 6 to 7)”. Same read-out and setting: the same measure for `CC(C)S(=O)(=O)c1cc(Cl)c(O)c2ncccc12` [Example 12, 7-chloro-5-isopropylsulfonyl-quinolin-8-ol]: “++ (two plus signs (++) is associated with a pIC50 of from about great than 6 to 7)”; for `O=S(=O)(c1cc(Cl)c(O)c2ncccc12)C1CCCCC1` [Example 13, 7-chloro-5-cyclohexylsulfonyl-quinolin-8-ol]: “+++ (three plus signs (+++) is associated with a pIC50 of above about 7)”; for `O=S(=O)(c1ccccn1)c1cc(Cl)c(O)c2ncccc12` [Example 19, 7-chloro-5-(2-pyridylsulfonyl)quinolin-8-ol]: “++ (two plus signs (++) is associated with a pIC50 of from about great than 6 to 7)”. The same measure, in the same setting: the same measure for `O=S(=O)(c1cc(F)c(O)c2ncccc12)C1CCCC1` [Example 10, 7-fluoro-5-cyclopentylsulfonyl-quinolin-8-ol]: “+++ (three plus signs (+++) is associated with a pIC50 of above about 7)”; for `CC(C)CS(=O)(=O)c1cc(Cl)c(O)c2ncccc12` [Example 11, 7-chloro-5-isobutylsulfonyl-quinolin-8-ol]: “+ (a single plus (+) is associated with a pIC50 of from about 4.5 to 6)”; for `C[C@H]1CCCN1S(=O)(=O)c1ccc(O)c2ncccc12` [Example 6]: “+++ (three plus signs (+++) is associated with a pIC50 of above about 7)”. For the compound `O=S(=O)(c1ccc(C(F)(F)F)cc1)c1cc(F)c(O)c2ncccc12` [Example 15, 7-fluoro-5-[4-(trifluoromethyl)phenyl]sulfonyl-quinolin-8-ol], in data set [1], the “Activity range (pIC50)” value was “++ (two plus signs (++) is associated with a pIC50 of from about great than 6 to 7)”. Turning to `CCCCCCCCS(=O)(=O)c1ccc(O)c2ncccc12` [Example 2, 5-octylsulfonylquinolin-8-ol], the “Activity range (pIC50)” value in data set [1] is on record as “+++ (three plus signs (+++) is associated with a pIC50 of above about 7)”. With `CC(C)(C)c1ccc(S(=O)(=O)c2cc(Cl)c(O)c3ncccc23)cc1` [Example 26, 5-(4-tert-butylphenyl)sulfonyl-7-chloro-quinolin-8-ol], the “Activity range (pIC50)” value in data set [1] is given as “+ (a single plus (+) is associated with a pIC50 of from about 4.5 to 6)”. On to `O=S(=O)(c1cc(Cl)c(O)c2ncccc12)C1CCCC1` [Example 8, 7-chloro-5-cyclopentylsulfonyl-quinolin-8-ol], for which the “Activity range (pIC50)” value in data set [1] is listed as “++ (two plus signs (++) is associated with a pIC50 of from about great than 6 to 7)”. `O=S(=O)(c1ccc(C(F)(F)F)cc1)c1cc(Cl)c(O)c2ncccc12` [Example 18, 7-chloro-5-[4-(trifluoromethyl)phenyl]sulfonyl-quinolin-8-ol]: the “Activity range (pIC50)” value in data set [1] was “++ (two plus signs (++) is associated with a pIC50 of from about great than 6 to 7)”. On the same count and under the same terms, then `O=S(=O)(c1cccnc1)c1cc(Cl)c(O)c2ncccc12` [Example 27, 7-chloro-5-(3-pyridylsulfonyl)quinolin-8-ol], with “+ (a single plus (+) is associated with a pIC50 of from about 4.5 to 6)”. Consider `CC(C)CS(=O)(=O)c1ccc(O)c2ncccc12` [Example 1, 5-isobutylsulfonylquinolin-8-ol], for which, in data set [1], the “Activity range (pIC50)” value is “+++ (three plus signs (+++) is associated with a pIC50 of above about 7)”. Still for that read-out and setting: then `O=S(=O)(c1cccc(-c2ccccc2)c1)c1cc(Cl)c(O)c2ncccc12` [Example 25, 7-chloro-5-(3-phenylphenyl)sulfonyl-quinolin-8-ol], with “++ (two plus signs (++) is associated with a pIC50 of from about great than 6 to 7)”.

On to `O=S(=O)(c1ccc(F)cc1)c1cc(F)c(O)c2ncccc12` [Example 14, 7-fluoro-5-(4-fluorophenyl)sulfonyl-quinolin-8-ol], for which the “Activity range (pIC50)” value in data set [1] is given as “++ (two plus signs (++) is associated with a pIC50 of from about great than 6 to 7)”. Still for that read-out and setting: then `Cc1ccc(S(=O)(=O)c2cc(Cl)c(O)c3ncccc23)c(C)c1` [Example 20, 7-chloro-5-(2,4-dimethylphenyl)sulfonyl-quinolin-8-ol], with “+++ (three plus signs (+++) is associated with a pIC50 of above about 7)”.

For the compound `O=S(=O)(c1ccc(Cl)c(Cl)c1)c1cc(Cl)c(O)c2ncccc12` [Example 24, 7-chloro-5-(3,4-dichlorophenyl)sulfonyl-quinolin-8-ol], the “Activity range (pIC50)” value in data set [1] is recorded as “++ (two plus signs (++) is associated with a pIC50 of from about great than 6 to 7)”.

With `N[C@@H](Cc1ccc(O)c(O)c1)C(=O)O` [L-DOPA, L-dihydroxyphenylalanine], in data set [2], the “percentage of exogenously administered L-DOPA that reaches the brain” value was around 1%. Consider `O=S(=O)(c1nccs1)c1cc(Cl)c(O)c2ncccc12` [Example 22, 7-chloro-5-thiazol-2-ylsulfonyl-quinolin-8-ol], for which the “Activity range (pIC50)” value in data set [1] is on record as “++ (two plus signs (++) is associated with a pIC50 of from about great than 6 to 7)”.

Turning to `O=S(=O)(c1ccccn1)c1cc(F)c(O)c2ncccc12` [Example 16, 7-fluoro-5-(2-pyridylsulfonyl)quinolin-8-ol], in data set [1], the “Activity range (pIC50)” value is recorded as “++ (two plus signs (++) is associated with a pIC50 of from about great than 6 to 7)”. As to `O=S(=O)(c1ccc(F)cc1)c1cc(Cl)c(O)c2ncccc12` [Example 9, 7-chloro-5-(4-fluorophenyl)sulfonyl-quinolin-8-ol], in data set [1], the “Activity range (pIC50)” value is on record as “++ (two plus signs (++) is associated with a pIC50 of from about great than 6 to 7)”. The same measure, in the same setting: the same measure for `C[C@@H]1CCCN1S(=O)(=O)c1ccc(O)c2ncccc12` [Example 5, 5-[(2R)-2-methylpyrrolidin-1-yl]sulfonylquinolin-8-ol]: “+++ (three plus signs (+++) is associated with a pIC50 of above about 7)”. Turning to `CCN(CC)C(=O)/C(C#N)=C/c1cc(O)c(O)c([N+](=O)[O-])c1` [entacapone], in data set [3], the “brain penetration / levels in the brain” value is “negligible brain penetration”. As for `Cc1ccc(S(=O)(=O)c2cc(Cl)c(O)c3ncccc23)cc1C` [Example 17, 7-chloro-5-(3,4-dimethylphenyl)sulfonyl-quinolin-8-ol], the “Activity range (pIC50)” value in data set [1] is given as “++ (two plus signs (++) is associated with a pIC50 of from about great than 6 to 7)”.

The values above are taken from patent US9951057B2, “COMT inhibiting methods and compositions” (Lieber Institute for Brain Development, priority 2015, dated 2018).
